These results are taken from patent publication US11986532B2 (Arvinas Operations, Inc., priority 2021, dated 2024).

The target of the experiment is T1, BCL6 (Homo sapiens, UniProt P41182).
T1 construct: endogenous in cells; host or cells: T47D breast cancer epithelial cells
The experiment can be described thus: Immunofluorescence protocol for high content imaging of BCL6 (degradation) in T47D cells, 3 days compound treatment. The format is cell-based. To be noted: T47D cells, 3 days compound treatment; for DC50: read-out: Mean DC50 (nM)* category; for Dmax: read-out: Mean Dmax (%)** category. A digest of the protocol: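 Read-out: high-content imaging of anti-BCL6 immunofluorescence (Alexa-488 secondary) with CellMask and Hoechst counterstains, 10×, 4 fields/well. Cells had 3 days of compound exposure at 37° C, 5% CO2, 11-point 3-fold series from a final top of 0.1 or 1 μM.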

`CNC(=O)COc1cc2cc(Nc3nc(N4CCC(OC5CN([C@H]6CC[C@H](c7ccc8c(c7F)CN(C7CCC(=O)NC7=O)C8=O)CC6)C5)CC4)ncc3Cl)ccc2n(C(C)C)c1=O` (stereo partly drawn) [Compound 183, 2-{[6-({5-chloro-2-[4-({1-[(1r,4r)-4-[2-(2,6-dioxopiperidin-3-yl)-4-fluoro-1-oxo-2,3-dihydro-1H-isoindol-5-yl]cyclohexyl]azetidin-3-yl}oxy)piperidin-1-yl]pyrimidin-4-yl}amino)-2-oxo-1-(propan-2-yl)-1,2-dihydroquinolin-3-yl]oxy}-N-methylacetamide]: the DC50 is below 10 nM and the Dmax is at least 70%.

`CNC(=O)COc1cc2cc(Nc3nc(N4CCC(OC5CN([C@H]6CC[C@@H](c7ccc8c(c7F)CN(C7CCC(=O)NC7=O)C8=O)CC6)C5)CC4)ncc3Cl)ccc2n(C(C)C)c1=O` (stereo partly drawn) [Compound 184]: the DC50 was below 10 nM and the Dmax was at least 70%.

`CNC(=O)COc1cc2cc(Nc3nc(N4CCC(OC5CN([C@H]6CC[C@H](c7ccc8c(c7Cl)CN(C7CCC(=O)NC7=O)C8=O)CC6)C5)CC4)ncc3Cl)ccc2n(C(C)C)c1=O` (stereo partly drawn) [Compound 185]: the DC50 was below 10 nM and the Dmax was 50 to 70%.

With `CNC(=O)COc1cc2cc(Nc3nc(N4CCC(OC5CN([C@H]6CC[C@@H](c7ccc8c(c7Cl)CN(C7CCC(=O)NC7=O)C8=O)CC6)C5)CC4)ncc3Cl)ccc2n(C(C)C)c1=O` (stereo partly drawn) [Compound 186, 2-{[6-({5-chloro-2-[4-({1-[(1s,4s)-4-[4-chloro-2-(2,6-dioxopiperidin-3-yl)-1-oxo-2,3-dihydro-1H-isoindol-5-yl]cyclohexyl]azetidin-3-yl}oxy)piperidin-1-yl]pyrimidin-4-yl}amino)-2-oxo-1-(propan-2-yl)-1,2-dihydroquinolin-3-yl]oxy}-N-methylacetamide], the DC50 was below 10 nM and the Dmax was below 50%.

As to `CNC(=O)COc1cc2cc(Nc3nc(N4CCC(O[C@H]5C[C@H](N6CCC(c7ccc8c(c7F)CN(C7CCC(=O)NC7=O)C8=O)C(C)(C)C6)C5)CC4)ncc3Cl)ccc2n(C(C)C)c1=O` (stereo partly drawn) [Compound 187, 2-({6-[(5-chloro-2-{4-[(1r,3r)-3-{4-[2-(2,6-dioxopiperidin-3-yl)-4-fluoro-1-oxo-3H-isoindol-5-yl]-3,3-dimethylpiperidin-1-yl}cyclobutoxy]piperidin-1-yl}pyrimidin-4-yl)amino]-1-isopropyl-2-oxoquinolin-3-yl}oxy)-N-methylacetamide], the half-maximal degradation concentration (DC50) was below 10 nM and the Dmax is at least 70%.

Regarding `CNC(=O)COc1cc2cc(Nc3nc(N4CCC(O[C@H]5C[C@H](N6CCC(c7cc(F)c8c(c7F)CN([C@H]7CCC(=O)NC7=O)C8=O)CC6)C5)CC4)ncc3Cl)ccc2n(C(C)C)c1=O` [Compound 188, 2-({6-[(5-chloro-2-{4-[(1r,3r)-3-(4-{2-[(3S)-2,6-dioxopiperidin-3-yl]-4,7-difluoro-1-oxo-2,3-dihydro-1H-isoindol-5-yl}piperidin-1-yl)cyclobutoxy]piperidin-1-yl}pyrimidin-4-yl)amino]-2-oxo-1-(propan-2-yl)-1,2-dihydroquinolin-3-yl}oxy)-N-methylacetamide], the DC50 is below 10 nM and the greatest degradation seen (Dmax) was at least 70%.

Turning to `CNC(=O)COc1cc2cc(Nc3nc(N4CCC(O[C@H]5C[C@H](N6CCN(c7ccc8c(n7)CN(C7CCC(=O)NC7=O)C8=O)CC6)C5)CC4)ncc3Cl)ccc2n(C(C)C)c1=O` (stereo partly drawn) [Compound 189, 2-((6-((5-chloro-2-(4-((1r,3r)-3-(4-(6-(2,6-dioxopiperidin-3-yl)-5-oxo-6,7-dihydro-5H-pyrrolo[3,4-b]pyridin-2-yl)piperazin-1-yl)cyclobutoxy)piperidin-1-yl)pyrimidin-4-yl)amino)-1-isopropyl-2-oxo-1,2-dihydroquinolin-3-yl)oxy)-N-methylacetamide], the DC50 is below 10 nM and the Dmax fell in the range of 50 to 70%.

For the compound `CNC(=O)COc1cc2cc(Nc3nc(N4CCC(O[C@H]5C[C@H](N6CCC(c7ccc8c(c7F)CN(C7CCC(=O)NC7=O)C8=O)CC6)C5)CC4)ncc3Cl)ccc2n(C2CCC2)c1=O` (stereo partly drawn) [Compound 190, 2-({6-[(5-chloro-2-{4-[(1r,3r)-3-{4-[2-(2,6-dioxopiperidin-3-yl)-4-fluoro-1-oxo-2,3-dihydro-1H-isoindol-5-yl]piperidin-1-yl}cyclobutoxy]piperidin-1-yl}pyrimidin-4-yl)amino]-1-cyclobutyl-2-oxo-1,2-dihydroquinolin-3-yl}oxy)-N-methylacetamide], the DC50 was below 10 nM and the greatest degradation seen (Dmax) is at least 70%.

Regarding `CNC(=O)COc1cc2cc(Nc3nc(N4CCC(O[C@H]5C[C@H](N6CCC(c7ccc8c(c7F)CN(C7CCC(=O)NC7=O)C8=O)CC6)C5)CC4)ncc3Cl)ccc2n(C2CCCC2)c1=O` (stereo partly drawn) [Compound 191, 2-({6-[(5-chloro-2-{4-[(1r,3r)-3-{4-[2-(2,6-dioxopiperidin-3-yl)-4-fluoro-1-oxo-2,3-dihydro-1H-isoindol-5-yl]piperidin-1-yl}cyclobutoxy]piperidin-1-yl}pyrimidin-4-yl)amino]-1-cyclopentyl-2-oxo-1,2-dihydroquinolin-3-yl}oxy)-N-methylacetamide], the DC50 is below 10 nM and the Dmax was at least 70%.

For `CNC(=O)COc1cc2cc(Nc3nc(N4CCC(O[C@H]5C[C@H](N6CCN(c7ccc8c(n7)CN(C7CCC(=O)NC7=O)C8=O)[C@@H](C)C6)C5)CC4)ncc3Cl)ccc2n(C(C)C)c1=O` (stereo partly drawn) [Compound 192], the DC50 is below 10 nM and the Dmax was at least 70%.

In the case of `CNC(=O)COc1cc2cc(Nc3nc(N4CCC(O[C@H]5C[C@H](N6CCN(c7ccc8c(c7C)C(=O)N(C7CCC(=O)NC7=O)C8=O)[C@H](C)C6)C5)CC4)ncc3Cl)ccc2n(C(C)C)c1=O` (stereo partly drawn) [Compound 193, 2-({6-[(5-chloro-2-{4-[(1r,3r)-3-[(3R)-4-[2-(2,6-dioxopiperidin-3-yl)-4-methyl-1,3-dioxoisoindol-5-yl]-3-methylpiperazin-1-yl]cyclobutoxy]piperidin-1-yl}pyrimidin-4-yl)amino]-1-isopropyl-2-oxoquinolin-3-yl}oxy)-N-methylacetamide], the DC50 was below 10 nM and the Dmax was at least 70%.

For the compound `CNC(=O)COc1cc2cc(Nc3nc(N4CCC(O[C@H]5C[C@H](N6CCN(c7ccc8c(c7C)C(=O)N(C7CCC(=O)NC7=O)C8=O)C[C@@H]6C)C5)CC4)ncc3Cl)ccc2n(C(C)C)c1=O` (stereo partly drawn) [Compound 194, 2-({6-[(5-chloro-2-{4-[(1r,3r)-3-[(2S)-4-[2-(2,6-dioxopiperidin-3-yl)-4-methyl-1,3-dioxo-2,3-dihydro-1H-isoindol-5-yl]-2-methylpiperazin-1-yl]cyclobutoxy]piperidin-1-yl}pyrimidin-4-yl)amino]-2-oxo-1-(propan-2-yl)-1,2-dihydroquinolin-3-yl}oxy)-N-methylacetamide], the DC50 was below 10 nM and the Dmax is at least 70%.

Take `CNC(=O)COc1cc2c(F)c(Nc3nc(N4CCC(O[C@H]5C[C@H](N6CCN(c7ccc8c(c7C)C(=O)N(C7CCC(=O)NC7=O)C8=O)CC6)C5)CC4)ncc3Cl)ccc2n(C(C)C)c1=O` (stereo partly drawn) [Compound 195]: the DC50 was below 10 nM and the Dmax is at least 70%.

For `CC[C@H]1CN([C@H]2C[C@H](OC3CCN(c4ncc(Cl)c(Nc5ccc6c(c5)cc(OCC(=O)NC)c(=O)n6C(C)C)n4)CC3)C2)CCN1c1ccc2c(c1Cl)CN(C1CCC(=O)NC1=O)C2=O` (stereo partly drawn) [Compound 196, 2-({6-[(5-chloro-2-{4-[(1r,3r)-3-[(3S)-4-[4-chloro-2-(2,6-dioxopiperidin-3-yl)-1-oxo-2,3-dihydro-1H-isoindol-5-yl]-3-ethylpiperazin-1-yl]cyclobutoxy]piperidin-1-yl}pyrimidin-4-yl)amino]-2-oxo-1-(propan-2-yl)-1,2-dihydroquinolin-3-yl}oxy)-N-methylacetamide], the DC50 is below 10 nM and the Dmax is at least 70%.

As to `CNC(=O)COc1cc2cc(Nc3nc(N4CCC(O[C@H]5C[C@H](N6CCC(c7ccc8c(c7C)CN(C7CCC(=O)NC7=O)C8=O)CC6)C5)CC4)ncc3Cl)ccc2n(C(C)C)c1=O` (stereo partly drawn) [Compound 197], the DC50 was below 10 nM and the Dmax was at least 70%.

Regarding `CNC(=O)COc1cc2cc(Nc3nc(N4CCC(O[C@H]5C[C@H](N6CCN(c7ccc8c(n7)CN(C7CCC(=O)NC7=O)C8=O)[C@H](C)C6)C5)CC4)ncc3Cl)ccc2n(C(C)C)c1=O` (stereo partly drawn) [Compound 198, 2-({6-[(5-chloro-2-{4-[(1r,3r)-3-[(3R)-4-[6-(2,6-dioxopiperidin-3-yl)-5-oxo-5H,6H,7H-pyrrolo[3,4-b]pyridin-2-yl]-3-methylpiperazin-1-yl]cyclobutoxy]piperidin-1-yl}pyrimidin-4-yl)amino]-2-oxo-1-(propan-2-yl)-1,2-dihydroquinolin-3-yl}oxy)-N-methylacetamide], the DC50 is below 10 nM and the Dmax was at least 70%.

`CNC(=O)COc1cc2c(F)c(Nc3nc(N4CCC(O[C@H]5C[C@H](N6CCN(c7ccc8c(c7C)C(=O)N(C7CCC(=O)NC7=O)C8=O)[C@H](C)C6)C5)CC4)ncc3Cl)ccc2n(C(C)C)c1=O` (stereo partly drawn) [Compound 199]: the DC50 is below 10 nM and the Dmax was at least 70%.

For `CCc1c(N2CCN([C@H]3C[C@H](OC4CCN(c5ncc(Cl)c(Nc6ccc7c(c6)cc(OCC(=O)NC)c(=O)n7C(C)C)n5)CC4)C3)CC2)ccc2c1C(=O)N(C1CCC(=O)NC1=O)C2=O` (stereo partly drawn) [Compound 200, 2-({6-[(5-chloro-2-{4-[(1r,3r)-3-{4-[2-(2,6-dioxopiperidin-3-yl)-4-ethyl-1,3-dioxo-2,3-dihydro-1H-isoindol-5-yl]piperazin-1-yl}cyclobutoxy]piperidin-1-yl}pyrimidin-4-yl)amino]-2-oxo-1-(propan-2-yl)-1,2-dihydroquinolin-3-yl}oxy)-N-methylacetamide], the DC50 lay in the range of 10 to 50 nM and the Dmax was at least 70%.
